# Residue numbers refer to the chain shown, from its start.
# Columns and labels:
# Type in all cases: cell-based
# hGAT3 = molecular target: T1, hGAT3 (Homo sapiens, UniProt P48066); experiment: [3H]GABA uptake assay, CHO cells stably expressing hGAT3
# T1 construct: expressed in transfected cells
# T1 sequence (P48066 1-632): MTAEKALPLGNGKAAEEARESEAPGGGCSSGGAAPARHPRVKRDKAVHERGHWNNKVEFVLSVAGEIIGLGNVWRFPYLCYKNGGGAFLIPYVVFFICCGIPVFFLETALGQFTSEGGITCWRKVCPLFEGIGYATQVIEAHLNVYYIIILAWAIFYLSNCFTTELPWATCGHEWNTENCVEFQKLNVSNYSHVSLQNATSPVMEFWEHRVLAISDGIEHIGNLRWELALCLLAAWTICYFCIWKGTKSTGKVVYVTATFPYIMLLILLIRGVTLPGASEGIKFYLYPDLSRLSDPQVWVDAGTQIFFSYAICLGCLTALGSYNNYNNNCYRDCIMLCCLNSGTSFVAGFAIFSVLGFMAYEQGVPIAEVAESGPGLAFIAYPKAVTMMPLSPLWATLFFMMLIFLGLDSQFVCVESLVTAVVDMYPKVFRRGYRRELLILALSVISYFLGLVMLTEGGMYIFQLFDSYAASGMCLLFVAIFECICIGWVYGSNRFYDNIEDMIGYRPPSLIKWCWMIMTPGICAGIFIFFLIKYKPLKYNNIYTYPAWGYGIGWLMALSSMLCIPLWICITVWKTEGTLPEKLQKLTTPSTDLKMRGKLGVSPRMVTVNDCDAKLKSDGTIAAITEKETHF
# hBGT1 E52Y = molecular target: T2, hBGT1 E52Y (Homo sapiens, UniProt P48065, E52Y); experiment: [3H]GABA uptake assay, hBGT1 mutant E52Y in tsA201 cells
# T2 construct: host or cells: tsA201 cells (transformed HEK293), transient expression
# T2 sequence (P48065 1-614 E52Y): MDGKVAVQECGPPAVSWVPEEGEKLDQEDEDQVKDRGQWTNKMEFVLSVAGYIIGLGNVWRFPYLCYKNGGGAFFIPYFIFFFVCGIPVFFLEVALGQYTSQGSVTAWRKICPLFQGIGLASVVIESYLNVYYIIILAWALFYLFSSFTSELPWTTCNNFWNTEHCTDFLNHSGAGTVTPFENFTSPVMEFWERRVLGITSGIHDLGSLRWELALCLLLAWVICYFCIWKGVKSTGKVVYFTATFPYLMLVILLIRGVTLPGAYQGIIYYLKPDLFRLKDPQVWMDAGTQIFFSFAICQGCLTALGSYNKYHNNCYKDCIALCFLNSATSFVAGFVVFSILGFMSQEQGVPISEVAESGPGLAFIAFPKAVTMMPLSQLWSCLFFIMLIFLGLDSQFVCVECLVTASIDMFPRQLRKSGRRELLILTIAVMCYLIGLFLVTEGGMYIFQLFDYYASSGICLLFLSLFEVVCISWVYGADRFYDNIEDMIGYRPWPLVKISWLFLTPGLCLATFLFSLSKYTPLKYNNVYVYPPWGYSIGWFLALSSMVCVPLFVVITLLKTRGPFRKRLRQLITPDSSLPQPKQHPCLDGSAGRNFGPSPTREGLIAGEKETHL
# Method: (§1) To validate the molecular modeling, particularly the crucial interactions with the Glu52 and Gln299 residues, the activity of compound 9 was tested on the following hBGT1 mutants: E52A, E52Y, Q299L, and the double mutant E52A+Q299L (Figure 5 and Table 1).[14]
# (§2) The CHO cells were placed in 96-well plates (approximately 50,000 cells/well) for about 24 h before the experiment. […] After incubation, cells were washed 3 times with 100 μL/well ice-cold assay buffer, 150 μL/well MicroScint20 (PerkinElmer) was subsequently added before the plate was shaken for at least 1 h. The radioactivity of each well of the plate was measured on a TopCount NXT scintillation counter. […] Data presented are the pooled data of at least three independent experiments with three technical replicates if not stated otherwise in figure legends. Concentration–response curves were fitted by nonlinear regression to the sigmoidal concentration–response model with GraphPad Prism v 9.0.
# (§3) The tsA201 cell line (a transformed HEK293 cell line) has been described previously and was cultured accordingly.[20] The tsA201 cells used for transient expression of hBGT1 mutants were transfected with DNA constructs (8 μg per 10 cm plate) using 40 μL of PolyFect transfection reagent according to the manufacturer’s protocol (Qiagen). […]
# hBGT1 Q299L = molecular target: T3, hBGT1 Q299L (Homo sapiens, UniProt P48065, Q299L); experiment: [3H]GABA uptake assay, hBGT1 mutant Q299L in tsA201 cells
# T3 construct: HA; expressed in transfected cells; host or cells: tsA201 cells (transformed HEK293), transient expression
# T3 sequence (P48065 1-614 Q299L): T2 sequence (P48065 1-614 E52Y) with Y52E, Q299L
# Method: as §1, §2, §3
smiles,measurement,setting,value
NC12CC(C(=O)O)(C1)C2 [Compound 9],IC50,hGAT3,58.3 µM
same,inhibition at 100 µM,"hGAT3; CHO, read-out: inhibition of GABA uptake",~73%
same,IC50,hBGT1 E52Y,> 1000 µM
same,activity at mutant compared with wild type hBGT1,hBGT1 E52Y; E52Y vs wt,complete loss of activity
same,IC50,hBGT1 Q299L,73.5 µM
same,decrease in activity compared with wild type hBGT1,hBGT1 Q299L; Q299L vs wt,more than 2 fold

# Reference: paper PMC11587516 (ACS Chemical Neuroscience, 2024)
